According to ChEMBL document CHEMBL1201862, “PubChem BioAssay data set” (2004):
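Assay format: 96-well plates, 48-hour exposure. The concentration for 50% growth inhibition is given as GI50.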 The source made the active and inactive calls. Cut-off read from the data, not from the text of the source: active = GI50 up to about 1.1 µM and inactive = higher.

Tests used:
Assay in all cases: NCI anticancer screen, dose series, 48 h
[1] = system: OVCAR-3
[2] = system: CCRF-CEM
[3] = system: HL-60
[4] = system: UACC-257
[5] = system: MDA-MB-231
[6] = system: SF-295
[7] = system: SNB-75
[8] = system: NCI-H522
[9] = system: IGROV-1
[10] = system: TK-10
[11] = system: M14
[12] = system: MOLT-4
[13] = system: SK-MEL-5
[14] = system: Malme-3M
[15] = system: SK-MEL-2
[16] = system: PC-3
[17] = system: SNB-19
[18] = system: BT-549
[19] = system: U-251
[20] = system: NCI/ADR-RES
[21] = system: EKVX
[22] = system: T47D
[23] = system: UACC-62
[24] = system: COLO 205
[25] = system: HCT-15
[26] = system: LOX IMVI
[27] = system: MCF7
[28] = system: SW-620
[29] = system: NCI-H23
[30] = system: A498
[31] = system: KM12
[32] = system: NCI-H226
[33] = system: OVCAR-4
[34] = system: HCC 2998
[35] = system: UO-31
[36] = system: CAKI-1
[37] = system: MDA-MB-435
[38] = system: SN12C
[39] = system: ACHN
[40] = system: Hs-578T
[41] = system: SK-MEL-28
[42] = system: SR
[43] = system: SF-268
[44] = system: NCI-H460
[45] = system: HT-29
[46] = system: RXF 393
[47] = system: OVCAR-8
[48] = system: DU-145
[49] = system: OVCAR-5
[50] = system: A549
[51] = system: HOP-92
[52] = system: SF-539
[53] = system: MDA-N
[54] = system: HOP-62
[55] = system: 786-0
[56] = system: HCT-116
[57] = system: RPMI-8226
[58] = system: SK-OV-3
[59] = system: K562

O=C(CC(=O)N1N=C(N2CCCCC2)CC1c1ccccc1)Nc1ccccc1 (stereo not drawn)
GI50 [1]: > 100 µM (inactive) | GI50 [2]: > 100 µM (inactive) | GI50 [3]: > 100 µM (inactive) | GI50 [4]: > 100 µM (inactive) | GI50 [5]: > 100 µM (inactive) | GI50 [6]: > 100 µM (inactive) | GI50 [7]: > 100 µM (inactive) | GI50 [8]: > 100 µM (inactive) | GI50 [9]: > 100 µM (inactive) | GI50 [10]: > 100 µM (inactive) | GI50 [11]: > 100 µM (inactive) | GI50 [12]: > 100 µM (inactive) | GI50 [13]: > 100 µM (inactive) | GI50 [14]: > 100 µM (inactive) | GI50 [15]: > 100 µM (inactive) | GI50 [16]: > 100 µM (inactive) | GI50 [17]: > 100 µM (inactive) | GI50 [18]: > 100 µM (inactive) | GI50 [19]: > 100 µM (inactive) | GI50 [20]: > 100 µM (inactive) | GI50 [21]: > 100 µM (inactive) | GI50 [22]: > 100 µM (inactive) | GI50 [23]: > 100 µM (inactive) | GI50 [24]: > 100 µM (inactive) | GI50 [25]: > 100 µM | GI50 [26]: > 100 µM (inactive) | GI50 [27]: > 100 µM (inactive) | GI50 [28]: > 100 µM (inactive) | GI50 [29]: > 100 µM (inactive) | GI50 [30]: > 100 µM (inactive) | GI50 [31]: > 100 µM (inactive) | GI50 [32]: > 100 µM (inactive) | GI50 [33]: > 100 µM (inactive) | GI50 [34]: > 100 µM (inactive) | GI50 [35]: > 100 µM (inactive) | GI50 [36]: > 100 µM (inactive) | GI50 [37]: > 100 µM (inactive) | GI50 [38]: > 100 µM (inactive) | GI50 [39]: > 100 µM (inactive) | GI50 [40]: > 100 µM (inactive) | GI50 [41]: > 100 µM (inactive) | GI50 [42]: > 100 µM (inactive) | GI50 [43]: > 100 µM (inactive) | GI50 [44]: > 100 µM (inactive) | GI50 [45]: > 100 µM (inactive) | GI50 [46]: > 100 µM (inactive) | GI50 [47]: > 100 µM (inactive) | GI50 [48]: > 100 µM (inactive) | GI50 [49]: > 100 µM (inactive) | GI50 [50]: > 100 µM (inactive) | GI50 [51]: 91 µM (inactive) | GI50 [52]: > 100 µM (inactive) | GI50 [53]: > 100 µM (inactive) | GI50 [54]: > 100 µM (inactive) | GI50 [55]: > 100 µM (inactive) | GI50 [56]: > 100 µM (inactive)

CC1NCCC(CC(=O)O)C1CC(=O)O (stereo not drawn)
GI50 [1]: > 100 µM (inactive) | GI50 [2]: > 100 µM (inactive) | GI50 [3]: > 100 µM (inactive) | GI50 [4]: > 100 µM (inactive) | GI50 [5]: > 100 µM (inactive) | GI50 [6]: > 100 µM (inactive) | GI50 [7]: 97.9 µM (inactive) | GI50 [8]: > 100 µM (inactive) | GI50 [9]: > 100 µM (inactive) | GI50 [10]: > 100 µM (inactive) | GI50 [11]: > 100 µM (inactive) | GI50 [57]: > 100 µM (inactive) | GI50 [58]: > 100 µM (inactive) | GI50 [13]: > 100 µM (inactive) | GI50 [14]: > 100 µM (inactive) | GI50 [15]: > 100 µM (inactive) | GI50 [16]: > 100 µM (inactive) | GI50 [17]: > 100 µM (inactive) | GI50 [18]: > 100 µM (inactive) | GI50 [19]: > 100 µM (inactive) | GI50 [20]: > 100 µM (inactive) | GI50 [21]: > 100 µM (inactive) | GI50 [22]: > 100 µM (inactive) | GI50 [23]: > 100 µM (inactive) | GI50 [24]: > 100 µM (inactive) | GI50 [25]: > 100 µM | GI50 [26]: > 100 µM (inactive) | GI50 [27]: > 100 µM (inactive) | GI50 [28]: > 100 µM (inactive) | GI50 [29]: > 100 µM (inactive) | GI50 [30]: > 100 µM (inactive) | GI50 [31]: > 100 µM (inactive) | GI50 [32]: > 100 µM (inactive) | GI50 [33]: > 100 µM (inactive) | GI50 [34]: > 100 µM (inactive) | GI50 [35]: > 100 µM (inactive) | GI50 [36]: > 100 µM (inactive) | GI50 [37]: > 100 µM (inactive) | GI50 [38]: > 100 µM (inactive) | GI50 [39]: > 100 µM (inactive) | GI50 [40]: > 100 µM (inactive) | GI50 [41]: > 100 µM (inactive) | GI50 [42]: > 100 µM (inactive) | GI50 [43]: > 100 µM (inactive) | GI50 [44]: > 100 µM (inactive) | GI50 [45]: > 100 µM (inactive) | GI50 [59]: > 100 µM (inactive) | GI50 [46]: > 100 µM (inactive) | GI50 [47]: > 100 µM (inactive) | GI50 [48]: > 100 µM (inactive) | GI50 [49]: > 100 µM (inactive) | GI50 [50]: > 100 µM (inactive) | GI50 [51]: > 100 µM (inactive) | GI50 [53]: > 100 µM (inactive) | GI50 [54]: > 100 µM (inactive) | GI50 [55]: > 100 µM (inactive) | GI50 [56]: > 100 µM (inactive)
